Patent publication US20260209189A1, “ISOXAZOLINE-SUBSTITUTED BENZAMIDE COMPOUND AND APPLICATION THEREOF” (priority 2022, published 2026)

What was measured:
Format in all cases: in vivo
Tetranychus urticae = test: Insecticidal activity assay, peanut leaf dip, adult mite; conditions: 48 h
Description: (§1) The compound of the present invention was dissolved in acetone, and then diluted with water into liquids with gradients of different concentrations (ppm). Corn leaves were soaked in liquids of different concentrations for about 20 seconds, air-dried and then placed in petri dishes where 3rd instar Spodoptera frugiperda were placed, respectively; kale leaves were soaked in liquids of different concentrations for about 20 seconds, air-dried and then placed in petri dishes where 3rd instar Spodoptera frugiperda were placed, respectively; peanut leaves were soaked in liquids of different concentrations for about 20 seconds, air-dried and then placed in petri dishes where Tetranychus urticae (adult mite) and Aphis craccivora (adult aphid) were placed, respectively; water bamboo leaves were soaked in liquids of different concentrations for about 20 seconds, air-dried and then placed in petri dishes where 4th instar Chilo suppressalis were placed, respectively. Each petri dish was placed with 10 insects, covered and then stored at 25° C. in a constant temperature room. The number of dead insects were checked after 48 h. The dead insect rate was calculated by the formula: Death rate (%)=(Number of dead insects/Number of test insects)×100. Furthermore, the experiment was conducted in two replications.

Spodoptera frugiperda [1] = test: Assay of insecticidal activity of compositions (synergism), 3rd instar
Description: as §1
• Test targets: Spodoptera frugiperda (3rd instar) and Aphis gossypii (adult aphid) […]
(§2) Different ratios within the selected ratio range were set for toxicity determination, and the optimal ratio was selected according to synergistic effects. When the synergistic effect >0, it indicated a synergistic effect; when the synergistic effect is close to 0, it indicated an addition effect; when the synergistic effect <0, it indicated an antagonistic effect.
(§3) [formula] • wherein, P1, P2—Death rate by each individual agent in a mixed formulation.

Spodoptera frugiperda [2] = test: Insecticidal activity assay, corn leaf dip, 3rd instar larvae; conditions: liquid concentration 0.3 ppm, 48 h
Description: as §1

Spodoptera exigua = test: Insecticidal activity assay, kale leaf dip, 3rd instar larvae; conditions: liquid concentration 0.3 ppm, 48 h
Aphis gossypii = test: Assay of insecticidal activity of compositions (synergism), zucchini leaves, adult aphid
Description: as §1
• Test targets: Spodoptera frugiperda (3rd instar) and Aphis gossypii (adult aphid)
Referring to the above-mentioned Insecticidal activity assay, when the test target was Aphis gossypii, the zucchini leaves were selected.
as §2, §3

Aphis craccivora = test: Insecticidal activity assay, peanut leaf dip, adult aphid; conditions: liquid concentration 8.1 ppm, 48 h
Description: as §1

Cc1cc(C2=NOC(c3cc(Cl)c(Cl)c(C(F)(F)F)c3)(C(F)(F)F)C2)ccc1C(=O)N[C@H](C)C(=O)O (stereo partly drawn) [Compound 151 (2R)] showed a Death rate (Tetranychus urticae; liquid concentration 8.1 ppm) of 100%.
With C=CCOC(=O)C(C)NC(=O)c1ccc(C2=NOC(c3cc(Cl)c(Cl)c(C(F)(F)F)c3)(C(F)(F)F)C2)cc1C (mixture of isomers) [41 (2R)] the Death rate (Tetranychus urticae; liquid concentration 0.9 ppm) was 75%.
With O=c1c(-c2cccc(C(F)(F)F)c2)c([O-])[n+](Cc2cncnc2)c2ccccn12 [Triflumezopyrim, reference compound] the “Death rate by individual B” value (Spodoptera frugiperda [1]; B 100 ppm) was 33%.
With COC(=O)C(C)NC(=O)c1ccc(C2=NOC(c3cc(Cl)c(Cl)c(C(F)(F)F)c3)(C(F)(F)F)C2)cc1C(C)C (mixture of isomers) [141 (2R)] the Death rate (Spodoptera frugiperda [2]) was 90%.
COC(=O)C(NC(=O)c1ccc(C2=NOC(c3cc(Cl)c(Cl)c(C(F)(F)F)c3)(C(F)(F)F)C2)cc1C)OC (stereo not drawn) [Compound 124] gave a Death rate (Spodoptera frugiperda [2]) of 80%, a Death rate (Tetranychus urticae; liquid concentration 8.1 ppm) of 77% and a Death rate (Spodoptera exigua) of 70%.
CN/C(=N\[N+](=O)[O-])NCc1cnc(Cl)s1 [Clothianidin, reference compound] gave a pest or weed control at 5 µg/mL (Aphis gossypii; in Cucurbita pepo, 48 h, B 5 ppm, read-out: Death rate by individual B) of 42%.
In the case of CCN(C(=O)c1cnn(C(C)C(C)C)c1C)c1ccnnc1 (stereo not drawn) [dimpropyridaz, Dimpropyridaz, reference compound], the “Death rate by individual B” value (Aphis gossypii; B 2 ppm) is reported as 48%.
For CC(c1ccc(C(F)(F)F)nc1)S(C)(=O)=NC#N (stereo not drawn) [Sulfoxaflor, reference compound], the pest or weed control at 2 µg/mL (Aphis gossypii; in Cucurbita pepo, 48 h, B 2 ppm, read-out: Death rate by individual B) was 46%.
Work on COC(=O)C(C)NC(=O)c1ccc(C2=NOC(c3cc(Cl)c(SC)c(C(F)(F)F)c3)(C(F)(F)F)C2)cc1C (mixture of isomers) [187 (2R)] yielded a Death rate (Tetranychus urticae; liquid concentration 8.1 ppm) of 63%.
With CCOC(=O)OC1=C(c2c(C)cc(Cl)cc2C)C(=O)N(C)C12CCN(OC)CC2 [Spiropidion, reference compound] the “Death rate by individual B” value (Spodoptera frugiperda [1]; B 2 ppm) was 39%.
For Cc1cc(C2=NOC(c3cc(Cl)c(Cl)c(C(F)(F)F)c3)(C(F)(F)F)C2)ccc1C(=O)NC(C)C(=O)O [Compound 151 (5S, 2R)], the Death rate (Tetranychus urticae; liquid concentration 8.1 ppm) was 100%.
For COC(=O)C(NC(=O)c1ccc(C2=NOC(c3cc(Cl)c(Cl)c(C(F)(F)F)c3)(C(F)(F)F)C2)cc1C)C(C)C (stereo not drawn) [Compound 111], the Death rate (Aphis craccivora) was 40% and the Death rate (Spodoptera exigua) was 60%.
With COC(=O)C(C)NC(=O)c1ccc(C2=NOC(c3cc(F)c(F)c(C(F)(F)F)c3)(C(F)(F)F)C2)cc1C (mixture of isomers) [181 (2R)] the Death rate (Tetranychus urticae; liquid concentration 8.1 ppm) was 70%.
In the case of C[C@]1(COC(=O)C2CC2)[C@@H]2C[C@H](O)[C@@]3(C)Oc4cc(-c5cccnc5)oc(=O)c4[C@H](O)[C@@H]3[C@@]2(C)CC[C@@H]1OC(=O)C1CC1 [Afidopyropen, reference compound], the “Death rate by individual B” value (Aphis gossypii; B 1 ppm) is reported as 68%.
Work on C#CCOC(=O)C(C)NC(=O)c1ccc(C2=NOC(c3cc(Cl)c(Cl)c(C(F)(F)F)c3)(C(F)(F)F)C2)cc1C (mixture of isomers) [43 (2R)] yielded a Death rate (Tetranychus urticae; liquid concentration 0.9 ppm) of 85%.
COC(=O)C(Cc1ccccc1)NC(=O)c1ccc(C2=NOC(c3cc(Cl)c(Cl)c(C(F)(F)F)c3)(C(F)(F)F)C2)cc1C (mixture of isomers) [131 (2R)] was tested, and the Death rate (Tetranychus urticae; liquid concentration 8.1 ppm) was 80%.
Cc1c(COC(=O)[C@@H]2[C@H](/C=C(\Cl)C(F)(F)F)C2(C)C)cccc1-c1ccccc1 (racemic) [Bifenthrin, reference compound] gave a pest or weed control at 1 µg/mL (Spodoptera frugiperda [1]; 48 h, B 1 ppm, read-out: Death rate by individual B) of 22%.
With COC(=O)N(C(=O)N1CO[C@@]2(C(=O)OC)Cc3cc(Cl)ccc3C2=N1)c1ccc(OC(F)(F)F)cc1 [Indoxacarb, reference compound] the “Death rate by individual B” value (Spodoptera frugiperda [1]; B 0.5 ppm) was 36%.
With CN1COCN(Cc2cnc(Cl)s2)/C1=N\[N+](=O)[O-] [Thiamethoxam, reference compound] the pest or weed control at 1 µg/mL (Aphis gossypii; in Cucurbita pepo, 48 h, B 1 ppm, read-out: Death rate by individual B) was 64%.
For CCOC(=O)OC1=C(c2cc(C)ccc2C)C(=O)N[C@]12CC[C@@H](OC)CC2 [Spirotetramat, reference compound], the pest or weed control at 100 µg/mL (Spodoptera frugiperda [1]; 48 h, B 100 ppm, read-out: Death rate by individual B) was 47%.
Abamectin [reference compound] was tested, and the “Death rate by individual B” value (Spodoptera frugiperda [1]; B 100 ppm) was 25%.
Cc1cc(C2=NOC(c3cc(Cl)c(Cl)c(C(F)(F)F)c3)(C(F)(F)F)C2)ccc1C(=O)NC(C)C(=O)OCCO (mixture of isomers) [57 (2R)] was tested, and the Death rate (Tetranychus urticae; liquid concentration 8.1 ppm) was 90%.
For O=C(NC(=O)c1c(F)cccc1F)Nc1cc(Cl)c(OC(F)(F)C(F)C(F)(F)F)cc1Cl (stereo not drawn) [Lufenuron, reference compound], the pest or weed control at 50 µg/mL (Spodoptera frugiperda [1]; 48 h, B 50 ppm, read-out: Death rate by individual B) was 38%.
With Spinetoram [reference compound] the “Death rate by individual B” value (Spodoptera frugiperda [1]; B 0.5 ppm) was 62%.
